One data set concerns dd-strain male mice. The experiment in a line: Toxicity test (LD50, intraperitoneal, mice). The following applies: 18 to 21 g, 3 weeks observation, Probit analysis, 30240 min. Type of data set: in vivo, mouse. As to the method: (§1) Toxicity test: The compound being tested is suspended in physiological saline in varied concentrations by the serial dilution method (common ratio, 1:1.5). Each solution was administered intraperitoneally to groups of 8 to 12 dd-strain male mice, each 18 to 21 g in body weight. The mice were then bred on a usual diet and water. The LD50 value was determined by Probit analysis by observing dead and alive for 3 weeks after the administration.

A short description of data set [1]: Toxicity test (LD50, intraperitoneal, mice). Type of data set: in vivo, mouse. Conditions: mouse, in vivo, ip, dd-strain male mice, 18 to 21 g, 3 weeks observation, Probit analysis. As to the method:
as §1

The conditions of data set [2]: said to be exhibited due to side effects; cited from earlier work.
The conditions of data set [3]: known, in words; cited from earlier work.
For data set [4] the following is noted: known, in words; cited from earlier work. This is another data set of the same source.

Structures are written as SMILES. Structures can show the parent of a compound that is named as a salt.

By LD50 is commonly meant the dose at which mortality reaches 50%. `Cc1ccc2c(c1O)NC(S(=O)O)C1CC(/C=C/C(N)=O)=CN1C2=O` (stereo not shown) [R1=H, R2=H, R3=SO2 Na] returned an LD50 with dd-strain male mice of 2.28 mg/kg. With `CC(=O)N1c2c(ccc(C)c2OC(N)=O)C(=O)N2C=C(/C=C/C(N)=O)CC2C1S(=O)O` (stereo not shown) [R1=CONH2, R2=COCH3, R3=SO2 H, 5,10,11,11a-tetrahydro-10-acetyl-9-carbamyloxy-8-methyl-5-oxo-11-sulfino-1H-pyrrolo[2,1-c][1,4]benzodiazepin-2-acrylamide], the LD50 at 504 h in data set [1] was 2.84 mg/kg. As to `Cc1ccc2c(c1O)N=CC1CC(/C=C/C(N)=O)=CN1C2=O` (stereo not shown) [P'B'A', 5,11,11a-trihydro-9-hydroxy-8-methyl-5-oxo-1H-pyrrolo-[2,1-c][1,4]benzodiazepin-2-acrylamide], in data set [2], the “toxicity, particularly cardiotoxicity” value was “strong toxicity, particularly cardiotoxicity”. Besides, the antitumor activity entry in data set [3] is reported as “very strong antitumor activity”. In data set [4], the antibacterial activity entry is “antibacterial and antitumor activities are exhibited”. As to `Cc1ccc2c(c1O)NC(S(=O)O)C1CC(/C=C/C(N)=O)=CN1C2=O` (stereo not shown) [R1=H, R2=H, R3=SO2 H, 5,10,11,11a-tetrahydro-9-hydroxy-8-methyl-5-oxo-11-sulfino-1H-pyrrolo[2,1-c][1,4]-benzodiazepin-2-acrylamide], the 50% lethal dose (LD50) at 504 h in data set [1] worked out at 2.18 mg/kg.

`Cc1ccc2c(c1OC(N)=O)NC(S(=O)O)C1CC(/C=C/C(N)=O)=CN1C2=O` (stereo not shown) [R1=CONH2, R2=H, R3=SO2 H, 5,10,11,11a-Tetrahydro-9-carbamyloxy-8-methyl-5-oxo-11-sulfino-1H-pyrrolo[2,1-c][1,4]benzodiazepin-2-acrylamide] registered an LD50 at 504 h in data set [1] of 2.37 mg/kg. As for `Cc1ccc2c(c1O)NC(O)C1CC(/C=C/C(N)=O)=CN1C2=O` (single isomer, unassigned) [PBA, 5,10,11,11a-tetrahydro-9,11-dihydroxy-8-methyl-5-oxo-1H-pyrrolo[2,1-c][1,4]-benzodiazepin-2-acrylamide], the 50% lethal dose (LD50) at 504 h in data set [1] was determined as 0.73 mg/kg. Also, the “toxicity, particularly cardiotoxicity” value in data set [2] is on record as “strong toxicity, particularly cardiotoxicity”. Further, the antitumor activity result in data set [3] is “very strong antitumor activity”. Moreover, the antibacterial activity result in data set [4] is “antibacterial and antitumor activities are exhibited”.

In the data set with dd-strain male mice, `Cc1ccc2c(c1O)NC(S(=O)O)C1CC(/C=C/C(N)=O)=CN1C2=O` (stereo not shown) [R1=H, R2=H, R3=SO2 K] showed an LD50 of 2.31 mg/kg. Molecule `COC(=O)Oc1c(C)ccc2c1NC(S(=O)O)C1CC(/C=C/C(N)=O)=CN1C2=O` (stereo not shown) [R1=COOCH3, R2=H, R3=SO2 H] showed an LD50 at 504 h in data set [1] of 2.56 mg/kg. In the data set with dd-strain male mice, `CC(=O)N1c2c(ccc(C)c2O)C(=O)N2C=C(/C=C/C(N)=O)CC2C1S(=O)(=O)O` (stereo not shown) [R1=H, R2=COCH3, R3=SO3 H, 5,10,11,11a-Tetrahydro-10-acetyl-9-hydroxy-8-methyl-5-oxo-11-sulfo-1H-pyrrolo[2,1-c][1,4]benzodiazepin-2-acrylamine] returned an LD50 of 2.43 mg/kg. `CC(=O)N1c2c(ccc(C)c2OC(N)=O)C(=O)N2C=C(/C=C/C(N)=O)CC2C1S(=O)(=O)O` (stereo not shown) [R1=CONH2, R2=COCH3, R3=SO3 H, 5,10,11,11a-Tetrahydro-10-acetyl-9-carbamyloxy-8-methyl-5-oxo-11-sulfo-1H-pyrrolo[2,1-c][1,4]benzodiazepin-2-acrylamide] returned an LD50 at 504 h in data set [1] of 2.8 mg/kg.

The molecule `CC(=O)Oc1c(C)ccc2c1NC(S(=O)O)C1CC(/C=C/C(N)=O)=CN1C2=O` (stereo not shown) [R1=COCH3, R2=H, R3=SO2 H, 5,10,11,11a-Tetrahydro-9-acetoxy-8-methyl-5-oxo-11-sulfino-1H-pyrrolo[2,1-c][1,4]benzodiazepin-2-acrylamide] returned an LD50 at 504 h in data set [1] of 2.54 mg/kg. `CC(=O)Oc1c(C)ccc2c1N(C(C)=O)C(S(=O)(=O)O)C1CC(/C=C/C(N)=O)=CN1C2=O` (stereo not shown) [R1=COCH3, R2=COCH3, R3=SO3 H, 5,10,11,11a-Tetrahydro-9-acetoxy-10-acetyl-8-methyl-5-oxo-11-sulfo-1H-pyrrolo[2,1-c][1,4]benzodiazepin-2-acrylamide]: the median lethal dose (LD50) with dd-strain male mice came to 2.81 mg/kg.

In turn, `CC(=O)N1c2c(ccc(C)c2O)C(=O)N2C=C(/C=C/C(N)=O)CC2C1S(=O)(=O)O` (stereo not shown) [R1=H, R2=COCH3, R3=SO3 Na, 5,10,11,11a-tetrahydro-10-acetyl-9-hydroxy-8-methyl-5-oxo-11-sulfo-1H-pyrrolo[2,1-c][1,4]benzodiazepin-2-acrylamide sodium salt] returned an LD50 at 504 h in data set [1] of 2.51 mg/kg. On to `Cc1ccc2c(c1O)NC(S(=O)(=O)O)C1CC(/C=C/C(N)=O)=CN1C2=O` (stereo not shown) [R1=H, R2=H, R3=SO3 Na], for which, in the data set with dd-strain male mice, the median lethal dose (LD50) is 2.31 mg/kg. On to `COC1Nc2c(ccc(C)c2O)C(=O)N2C=C(/C=C/C(N)=O)CC12` (single isomer, unassigned) [P"B"A"], for which the “toxicity, particularly cardiotoxicity” value in data set [2] is on record as “strong toxicity, particularly cardiotoxicity”. For the same molecule, the antitumor activity entry in data set [3] is “very strong antitumor activity”. Further, the antibacterial activity result in data set [4] was “antibacterial and antitumor activities are exhibited”. On to `CC(=O)N1c2c(ccc(C)c2O)C(=O)N2C=C(/C=C/C(N)=O)CC2C1S(=O)O` (stereo not shown) [R1=H, R2=COCH3, R3=SO2 H, 5,10,11,11a-tetrahydro-10-acetyl-9-hydroxy-8-methyl-5-oxo-11-sulfino-1H-pyrrolo-[2,1-c][1,4]benzodiazepin-2-acrylamide], for which the LD50 at 504 h in data set [1] was found to be 2.5 mg/kg. Take `CC(=O)Oc1c(C)ccc2c1NC(S(=O)(=O)O)C1CC(/C=C/C(N)=O)=CN1C2=O` (stereo not shown) [R1=COCH3, R2=H, R3=SO3 H, 5,10,11,11a-tetrahydro-9-acetoxy-8-methyl-5-oxo-11-sulfo-1H-pyrrolo[2,1-c][1,4]benzodiazepin-2-acrylamide]: the median lethal dose (LD50) at 504 h in data set [1] was 2.68 mg/kg. Still for that read-out and setting: the result for `Cc1ccc2c(c1O)NC(S(=O)(=O)O)C1CC(/C=C/C(N)=O)=CN1C2=O` (stereo not shown) [R1=H, R2=H, R3=SO3 H, 5,10,11,11a-Tetrahydro-9-hydroxy-8-methyl-5-oxo-11-sulfo-1H-pyrrolo[2,1-c][1,4]benzodiazepin-2-acrylamide] reads 2.21 mg/kg. Regarding `CC(=O)Oc1c(C)ccc2c1N(C(C)=O)C(S(=O)O)C1CC(/C=C/C(N)=O)=CN1C2=O` (stereo not shown) [R1=COCH3, R2=COCH3, R3=SO2 H, 5,10,11,11a-tetrahydro-9-acetoxy-10-acetyl-8-methyl-5-oxo-11-sulfino-1H-pyrrolo-[2,1-c][1,4]benzodiazepin-2-acrylamide], the 50% lethal dose (LD50) with dd-strain male mice was determined as 2.62 mg/kg. The molecule `CC(=O)Oc1c(C)ccc2c1N(C(C)=O)C(S(=O)(=O)O)C1CC(/C=C/C(N)=O)=CN1C2=O` (stereo not shown) [R1=COCH3, R2=COCH3, R3=SO3 Na] gave an LD50 at 504 h in data set [1] of 3.04 mg/kg. `Cc1ccc2c(c1OC(N)=O)NC(S(=O)(=O)O)C1CC(/C=C/C(N)=O)=CN1C2=O` (stereo not shown) [R1=CONH2, R2=H, R3=SO3 H, 5,10,11,11a-Tetrahydro-9-carbamyloxy-8-methyl-5-oxo-11-sulfo-1H-pyrrolo[2,1-c][1,4]benzodiazepin-2-acrylamide] yielded an LD50 at 504 h in data set [1] of 2.4 mg/kg. Turning to `CC(=O)Oc1c(C)ccc2c1N(C(C)=O)C(S(=O)O)C1CC(/C=C/C(N)=O)=CN1C2=O` (stereo not shown) [R1=COCH3, R2=COCH3, R3=SO2 Na], the 50% lethal dose (LD50) at 504 h in data set [1] was determined as 2.71 mg/kg. In the case of `CC(=O)Oc1c(C)ccc2c1NC(S(=O)O)C1CC(/C=C/C(N)=O)=CN1C2=O` (stereo not shown) [R1=COCH3, R2=H, R3=SO2 Na, 5,10,11,11a-tetrahydro-9-acetoxy-8-methyl-5-oxo-11-sulfino-1H-pyrrolo[2,1-c][1,4]benzodiazepin-2-acrylamide sodium salt], in the data set on dd-strain male mice (sodium salt), the LD50 came to 2.60 mg/kg.

As to `COC(=O)Oc1c(C)ccc2c1NC(S(=O)(=O)O)C1CC(/C=C/C(N)=O)=CN1C2=O` (stereo not shown) [R1=COOCH3, R2=H, R3=SO3 H, 5,10,11,11a-tetrahydro-8-methyl-9-methoxycarbonyloxy-5-oxo-11-sulfo-1H-pyrrolo[2,1-c][1,4]-benzodiazepin-2-acrylamide], the median lethal dose (LD50) at 504 h in data set [1] was found to be 2.55 mg/kg.

(Values after US4309437A, “Pyrrolo-benzodiazepine compounds and anti-tumor composition thereof” (priority 1979, dated 1982).)
